For series [1], the system named is C57BL/6 male mice treated with bleomycin (pulmonary fibrosis). Put plainly: Bleomycin/pulmonary fibrosis study, lung histology (Masson's trichrome, Ashcroft fibrosis grading). Conditions: bleomycin OA day 0, 60 mg/kg IP BID days 7 through 20; for statistical significance of the decrease in fibrosis vs dosing vehicle: SPSS version 20. Format: in vivo. An excerpt: FIG. 2. Figure is a chart providing histology scores for pulmonary tissue from mice treated with bleomycin (a well characterized lung toxin) and either dosing vehicle, UR, or TK-112690.
Thirty-three C57BL/6 male mice, 10-14 weeks at study initiation, were acclimatized for least 3 days. The mouse has been selected as is referenced in the literature as a representative species of choice for this experimental animal model. During acclimation and throughout the entire study duration, animals were housed within a limited access rodent facility and kept in groups of a maximum of 4 mice per cage. Mice were housed in polypropylene cages with solid bottoms and wood shavings or corn Cobb as bedding material. Animals were provided ad libitum with a commercial rodent diet and had free access to drinking water that is supplied to each cage via polyethylene bottles. The automatically controlled environmental conditions was set to maintain temperature at 20-26° C. with a relative humidity (RH) of 30-70%, a 12:12 hour light: dark cycle, and 10-15 air changes/hour in the study room. Animals were given a unique animal identification tail mark as a means of identification. This number also appeared on a cage card, which is visible on the front of each cage. The cage card also contains the study and group numbers, route of administration, gender, study director and arrival date.
Animals were randomly assigned to cages on arrival. Animals were assigned to treatment groups prior to treatment initiation. At study termination, surviving animals were weighed prior to euthanasia. Euthanasia was performed via anesthesia overdose and exsanguination.
The table below lists the experimental group(s) comprising the study.
Disease Induction. 75 uL of Bleomycin (section 4.5.) was administered on day 0 via oropharyngeal aspiration (O.A.). The mice were anesthetized via isoflurane/oxygen and suspended by their cranial incisors on a thin wire from an angled stand. The tongue was be gently held from the mouth using blunt forceps to visualize the base of the tongue and the pharynx. Bleomycin/saline suspension was pipetted onto posterior pharynx. Nostrils will be held gently closed. Respiration was monitored to ensure the suspension is fully aspirated.
Treatment. Groups 3 and 4 were treated via intraperitoneal (IP) injection at a dosing volume of 10 ml/kg twice daily, 6-8 hours between doses, from days 7 through 20.
Observations and Examinations. […]
Histology. […] Disease severity and collagen levels were assessed by the Ashcroft fibrosis grading system.
The resulting data were analyzed by SPSS, version 20.

Series [2] in a line: Elimination t1/2 of Compound 1 in mice. As to conditions: mouse, in vivo.
For series [3], the system named is plasma UR. The experiment in a line: Plasma UR concentration versus plasma Compound 1 concentration after continuous infusion via sc implanted osmotic pumps. Format: in vivo. Conditions: BDF-1 male mice; for effect on plasma UR: constant-rate sc infusion 667, 833 or 3000 mg/kg/day, plasma at 72 h or 24 h. The method, then: Solutions of Compound I were prepared at a concentration of 500 mg/mL in sterile PBS. Osmotic pumps (ALZET® micro-osmotic pump 2001D and 1003D, Alza Co) were loaded with 200 μL (2001D osmotic pump) and/or 100 μL (1003D osmotic pump) of TK-112690 solution.
BDF-1 male mice (n=6) were treated with a constant-rate infusion of 667, 833 or 3000 mg/kg/day doses of Compound I delivered via subcutaneously implanted osmotic pumps. Animals were anesthetized with 100 mg/kg ketamine prior to pump implantation. Surgical scissors were used to make an approximately 1 cm incision on the dorsal surface near the shoulder blade of animals. A hemostat was used to carve out a subcutaneous tunnel toward the anterior end of animal. Osmotic pumps were placed inside the subcutaneous tunnel. Incision was sealed with wound clips.
Blood collections were performed on animals anesthetized with ketamine (ip 100 mg/kg). Blood samples from animals treated with a constant-rate infusion of TK-112690 were collected at 72 hours for 667 mg/kg/day and 833 mg/kg/day and 24 hours for 3000 mg/kg/day after pump implantation. Whole blood (˜0.8 mL) was drawn through the retro-orbital sinus using a heparin coated micro-hematocrit tube and collected into an EDTA microtainer tube. Blood samples were transferred into fresh 1.5 mL microcentrifuge tubes and centrifuged for 10 minutes at 14,000×g using an Eppendorf Minispin Plus stored in a 4° C. refrigerator. Exactly 0.4 mL of plasma was transferred into fresh microcentrifuge tubes containing 2 μL of 10 mM 5-FU and vortexed at highest setting for approximately 5 seconds. The final 50 μM concentration of 5-FU served as an internal standard. Animals were sacrificed by cervical dislocation and properly disposed.
Blood samples from animals treated with a constant-rate infusion of compound I were collected at 72 hours for 667 mg/kg/day and 833 mg/kg/day and 24 hours for 3000 mg/kg/day after pump implantation. […]
A solid-phase extraction (SPE) of analytes (UR, Compound I and 5-FU) from plasma was conducted before HPLC analysis. […] Samples were transferred into fresh HPLC vials and analyzed. […]

The conditions of series [4]: cited: Deng et al., Science 2017; cited from earlier work.

The values that follow come from patent US12194043B2, “Uridine phosphorylase inhibitors to treat or prevent pulmonary disease” (Tosk, Inc., priority 2020, dated 2025).

Entries after “also recorded” stand apart in the source; their conditions may differ.

For orientation: half-life means the time needed for the level to fall by half in the phase considered. Low values mean rapid decline, high ones slow decline. For the compound `Cc1cn2c(nc1=O)O[C@H]1[C@H](O)[C@@H](CO)O[C@H]12` [Compound 1], the “less fibrosis (histology score) than mice treated with the dosing vehicle” value in series [1] is given as 30%. Also, the “statistical significance of the decrease in fibrosis vs dosing vehicle” value in series [1] is listed as “statistically significant”. In series [2], this compound returned a half-life of 1 to 2 h. In addition, the “effect on plasma UR” value in series [3] is “elevate plasma UR in a linear fashion”; in series [3] (listed as TK-112690) it was “elevate plasma UR in a linear fashion; also recorded: associated with higher levels of UR”. The “slope of regression line, plasma UR concentration vs plasma Compound 1 concentration” value in series [3] (continuous infusion of various amounts) is on record as 0.010.

For the compound `O=c1ccn([C@@H]2O[C@H](CO)[C@@H](O)[C@H]2O)c(=O)[nH]1` [UR, uridine], in series [1], the “less fibrosis (histology score) than mice treated with the dosing vehicle” value came out at 7% and the “statistical significance of the decrease in fibrosis vs dosing vehicle” value is reported as “not statistically significant”. Also, the “elimination t1/2” value in series [4] was “only a few minutes”.
